Test system: Schistosoma mansoni
Assay: High throughput screening of compounds against Schistosoma mansoni motility
Type: functional
Parameters: dose or concentration left out as unconfirmed

Compound	Percent Effect [%]
CSCC(CCO)NC(=O)Nc1cc(C)ccc1C (stereo unspecified)	-11.31
COc1cc(C)nc(N2CCN(Cc3nccn3C)CC2)n1	-41.68
C1CC1c1nsc(N2CCN(C3CC3)CC2)n1	-51.78
O=C(Nc1ccnc(OC2CCOC2)c1)c1cc(F)ccc1F (stereo unspecified)	-26.29
CCN(c1ccc(C(=O)N2CCCC2)cc1)S(=O)(=O)CC	5.771
O=C(NCCN1CCC(c2cccs2)CC1)Nc1cccs1	-30.63
CN(C)C(=O)c1ccc2c(c1)N(C)C(CC(=O)NC(C)(C)CO)CO2 (stereo unspecified)	4.699
O=C(Cc1ccc(O)c(Cl)c1)N1CCN(CC2CC2)[C@@H]2CS(=O)(=O)C[C@@H]21	-40.54
NC(=O)CN1CCCN(C(=O)c2ccn(-c3cccc(F)c3)n2)CC1	-9.604
O=C(CCc1cc2n(n1)CCCN(Cc1ccccc1F)C2)NC1CC1	-12.36
O=C(CSc1ncccn1)N1C[C@H]2CC[C@@H]1CN(Cc1ccncc1)C2	-45.84
CN(CCN1CCCCCC1)C(=O)c1cc(CN2CCC(O)CC2)on1	-17.62
CN(C)C(=O)CNC(=O)Nc1cccc(Cl)c1SC(F)F	-29.89
O=C(CCCc1cn[nH]c1)N1C[C@@H](CN2CCOCC2)[C@@H](CO)C1	-60.63
Cc1nc(-c2ccsc2)ccc1C(=O)O	-19.43
CCN1CCN(S(=O)(=O)c2ncn(C)c2Cl)CC1	-72.02
N#CC1(C(=O)Nc2ccc(OC(F)F)cc2)CCCC1	6.367
O=C1OCCN1CCOc1nc(-c2ccccc2Cl)no1	-41.52
COC(=O)c1sccc1S(=O)(=O)NCC1(O)CCOc2ccccc21 (stereo unspecified)	-15.01
Cn1cc(CCC(=O)N2C[C@H]3CC[C@@H]2CN(Cc2ccccc2)C3)cn1	-38.92
COCc1ccccc1NC(=O)[C@@H]1CCCN1C(=O)c1ccco1	-9.117
Cc1nc(C)n(CC2CCCCN2CC(=O)Nc2cccnc2)n1 (stereo unspecified)	-10.51
Cn1c(CNc2c(F)cccc2-n2cccn2)cc(=O)n(C)c1=O	-12.04

Compound	Percent Effect [%]
Cn1cnc(S(=O)(=O)N2CCCC2)c1Cl	-11.59
CCC(=O)N1CCC(c2nnc(Cn3cncn3)n2C2CC2)CC1	-42.58
CC[C@@]1(O)CCN(C(=O)c2ccsc2)C[C@H]1O	-27.08
CC(=O)N1CCC(Oc2ccc(C#N)cn2)CC1	-36.18
O=S1(=O)CCCN1Cc1coc(-c2cccs2)n1	-11.58
CC(C)S(=O)(=O)NCC1CCCN(C(=O)c2ccc3c(c2)CCC3)C1 (stereo unspecified)	-22.55
Cc1ccc(S(=O)(=O)NC(=O)c2cccc3c2OCCO3)c(C)c1	-13.74
CNC(=O)CCNC(=O)c1cccc(Cn2nc(C)cc2C)c1	-2.451
CCc1nc2n(n1)CC(Nc1cc(C)nc3ncnn13)CC2 (stereo unspecified)	-43.49
CCNS(=O)(=O)c1ccc(C)c(C(=O)N(C)Cc2ccco2)c1	-32.86
O=C(Nc1ccnc(OC2CCOC2)c1)C1CCC1 (stereo unspecified)	-37.1
O=C(c1cn(-c2cc(N3CCOCC3)ncn2)cn1)N1CCSCC1	-64.76
CC(C)NC(=O)N1CCC(n2ccc(C(F)(F)F)n2)CC1	-11.19
Cc1n[nH]c(C)c1C1CCCN1C(=O)NCCSC(C)(C)C (stereo unspecified)	-28.72
CC(C#N)CSc1ccccc1NCC(=O)Nc1ccc(F)cc1 (stereo unspecified)	55.09
CSc1ncc(C(=O)N2C[C@H]3CC[C@@H]2CN(Cc2ccccc2)C3)cn1	-35.01
CCC(=O)N1CCC2(CC1)c1nc[nH]c1CCN2S(C)(=O)=O	-32.51
CCS(=O)(=O)N1CCC2(CCCN(Cc3cc(OC)ccc3F)C2)C1 (stereo unspecified)	49.58
Cc1cnn(CC2CCCN2Cc2coc(-c3cccs3)n2)c1 (stereo unspecified)	-52.32
O=C(NCCCn1cccn1)C1(c2ccc(F)cc2)CC1	23.22
Cn1c(Cn2cccn2)nnc1C1CCN(Cc2cccnc2N)CC1	-7.123
COc1ccc(NC(C)C(=O)N2CCN(c3ncccn3)CC2)cn1 (stereo unspecified)	-56.07
COc1cccc(N2CCN(Cc3ncc[nH]3)CC2=O)c1	-64.93

Compound	Percent Effect [%]
O=C(c1cn(-c2cc(N3CCSCC3)ncn2)cn1)N1CCSCC1	-48.35
O=C1CCCCN1Cc1cccc(NC(=O)N2CCSCC2)c1	22.51
CCCC(C)(C)NC(=O)c1ccc(CC2CC(=O)NC2=O)cc1 (stereo unspecified)	-6.374
CCc1nnc2n1CCN(C(=O)c1cnc3ccccc3n1)C2	-44.56
O=C(CCc1ccc(O)cc1)N1CCC(Cc2ccc(CO)cc2)C1 (stereo unspecified)	16.91
c1csc(-c2nc(CN3CCCC3Cn3cncn3)co2)c1 (stereo unspecified)	-94.11
Cc1nc(CC(=O)N2CCC[C@H]2c2nc(C(C)C)no2)cs1	11.66
CN(C)C(C(=O)N1CCC(N2CCSCC2)CC1)c1ccccc1F (stereo unspecified)	10.46
OCCOc1nc(-c2ccccc2Cl)no1	-41.46
Cc1cc(C)n(CC(=O)N2CCC(c3nc(C)no3)CC2)n1	-18.96
Cc1csc(CNC(=O)Nc2cc(C(F)(F)F)c[nH]c2=O)n1	7.294
CCN(CCn1cccn1)Cc1nc(-c2ccccc2F)oc1C	-13.18
CC(C)NC(=O)NCCCc1cc(N)n(-c2ccccc2)n1	-56.45
Cc1cnc2c(c1NCc1ccncc1)c(=O)n(C)c(=O)n2C	-90.48
CN(Cc1ncc[nH]1)S(=O)(=O)c1cccc(C(=O)N2CCOCC2)c1	-64.53
CC(C)(C(=O)NCC(N)=O)c1ccccc1F	10.05
CCCc1cc(NC2CCc3ncnn3C2)n2ncnc2n1 (stereo unspecified)	-6.308
Cc1noc(C)c1CCC(=O)N1CCN(CCn2cncn2)CC1	-8.408
OCCC1CN(C2CCC2)CCN1C1CCCC1 (stereo unspecified)	-52.06
CSCCCN1CCn2nc(CNC(C)=O)cc2C1	-25.09
CC1CN(C)c2ccccc2CN1C(=O)c1ccncc1 (stereo unspecified)	-35.26
CCn1c(N)nc2cc(C(=O)NCCc3ccccc3C)cnc21	-46.13
CSC(C)C(=O)NCCCc1cc(N)n(-c2ccccc2)n1 (stereo unspecified)	-59.95

Compound	Percent Effect [%]
COc1ccc(C2CCCCCN2S(=O)(=O)N(C)C)cc1 (stereo unspecified)	18.41
Cc1cc(N(C)Cc2noc(C)n2)n2nc(C)c(C)c2n1	-16.19
Cc1ccsc1CN(CCN(C)C)Cc1ccccn1	-19.12
O=C(CN1CCCC1Cn1cncn1)NC(C1CC1)C1CC1 (stereo unspecified)	-24.22
O=C(CCc1nccs1)N1CCCC(N2CCNC2=O)C1 (stereo unspecified)	-31.05
Cc1nc(C2CCCN(C(=O)c3scnc3C)C2)no1 (stereo unspecified)	18.51
CCc1nc(C2CCCN2CC(=O)Nc2c(C)nn(C)c2C)no1 (stereo unspecified)	-35.66
CN(C)C(=O)N1CCN(C(=O)C(c2ccccc2F)N(C)C)CC1 (stereo unspecified)	-1.181
CS(=O)(=O)N1CCC(Oc2ccc(C(=O)N3CCSCC3)cc2Cl)CC1	-0.7709
COc1ccccc1[C@@H]1CN(C(=O)c2csc(C)n2)C[C@H]1C(=O)O	18.41
CCOCCNc1nc(C2CCCC2)nc2c1cnn2C	-80.64
Cc1cccc(CCC(=O)N2CCOCC2c2c(C)n[nH]c2C)c1 (stereo unspecified)	-56.4
Cc1cnc(C(=O)N(CCN(C)C)Cc2ccc(Cl)cc2)cn1	17.37
O=C(c1ccc(=O)[nH]n1)N1CC(c2nc(Cc3ccccc3)no2)C1	-36.12
O=C(CSc1ccc2c(c1)OCCO2)NS(=O)(=O)C1CCCCC1	7.796
COC(=O)CN1CC(c2nc(Cc3ccccc3)no2)C1.O=C(O)C(=O)O	-0.4449
O=C(Nc1nc2c(s1)CN(S(=O)(=O)C1CC1)CC2)c1c(F)cccc1F	15.1
CC(=O)N1CCC(C(=O)NCCN2CCC(C)CC2)CC1	14.05
CNC(=O)C(C)(C)NC(=O)c1cc(OCC2CCC2)cc(C(=O)OC)c1	-68.4
CCOCCOc1ccccc1C(=O)N1CCCC(c2ncc[nH]2)C1 (stereo unspecified)	-53.5
CSCCC(=O)N1CCC(Oc2cc(C)ccc2F)(C(=O)O)CC1	12.24
O=C1NCCCCC1Sc1nnc(-c2cccnc2)n1C1CC1 (stereo unspecified)	-73.97
Cc1nc(C)n(CC2CCCN2CC(=O)NCc2ccco2)n1 (stereo unspecified)	-29.3

Compound	Percent Effect [%]
CCc1ccc(C(=O)N2CCCC(n3cncn3)C2)o1 (stereo unspecified)	-35.91
COc1ccccc1[C@@H]1CN(Cc2cc(C(C)(C)C)[nH]n2)C[C@H]1C(=O)O	42.17
CCCc1n[nH]c(C2CN(C(=O)CCCn3cccn3)CCO2)n1 (stereo unspecified)	-21.33
CCn1nc2c(cc1=O)CN(Cc1nc(N)c3ccccc3n1)CC2	-40.99
CCOc1ncccc1NC(=O)c1sccc1C	-42.63
CCc1ccc(C(=O)Nc2ccc(CC3CC(=O)NC3=O)cc2)cc1 (stereo unspecified)	-47.76
CC(C)(C)C(=O)NCCn1ccc(-c2ccncc2)n1	-55.77
Cc1ncc(CNC(=O)Nc2cc(C(F)(F)F)c[nH]c2=O)s1	-39.38
O=C(c1ccc[nH]1)N1CCC(c2nccn2Cc2ccncc2)CC1	-12.18
CC1CN(C)c2ccccc2CN1C(=O)c1ccc[nH]1 (stereo unspecified)	-38.54
CC[C@@]1(O)CCN(C(=O)c2ccc(SC)cc2)C[C@H]1O	20.95
CN1CCN(Cc2nnc(C3CCN(CC4CC4)CC3)n2C)CC1	-64.34
CC(=O)c1cc(CN2C[C@H]3CC[C@@H]2CN(S(=O)(=O)N(C)C)C3)cs1	-16.28
Cn1cc(CCNC(=O)NC2CCS(=O)(=O)C2)cn1 (stereo unspecified)	-23.41
Cc1ccsc1[C@@H]1CCN(C(=O)c2cc3ccccc3[nH]2)C[C@H]1O	28.15
NC(=O)COc1cccc(C(=O)Nc2cnc3n2CCCC3)c1	-21.49
CS(=O)(=O)CCNC(=O)C1(c2cccc(Cl)c2)CCCCC1	34.87
CN1CCCN(C(=O)c2ccc3c(c2)nc(N2CCOCC2)n3C)CC1	-26.36
CC(C)C1CN(c2ncccn2)CCC(=O)N1Cc1ccc(F)cc1 (stereo unspecified)	-32.66
